Legend:
[1] = test system: PI3k/Akt pathway (Akt phosphorylation) in IEC-18 cells; experiment: Akt phosphorylation Western blot in IEC-18 cell lysates; format: cell-based, rat; conditions: 24 hours; for Akt phosphorylation: 5 μM SC-560, 10 μM celecoxib or 10 μM indomethacin
Procedure: Rat intestinal epithelial cells (IEC-18 cells) are immortalized normal epithelial cells purchased from the American Type Culture Collection (ATCC). For these experiments, IEC-18 cells were cultured in high glucose Delbecco's Modified Eagle's Medium (DMEM) at 37° C. under 5% CO2 and incubated for 24 hours with either a) 5 μM of the COX-1 inhibitor SC-560 (purchased from Sigma-Aldrich, St. Louis, Mo.), 10 μM of the COX-2 inhibitor celecoxib, or 10 μM of the COX-½ inhibitor indomethacin. Drugs were provided in a 0.1% dimethylsulfoxide (DMSO) vehicle.
The PI3k/Akt pathway is monitored using the following general assay procedure. Following incubation cell lysates are collected with lysis buffer containing phosphatase and proteinase inhibitors. The supernanats are collected and protein concentrations are measured. Then SDS(sodium dodecyl sulfate) sample buffers are made to make sure final protein concentration is equal in each sample and boiled for minutes at 100° C. Then the samples are loaded on to a 4%-12% pre-made SDS-PAGE (polyacrylamide gel electrophoresis) and the gel is developed under electrophoresis. When the samples reach the bottom of the gel, the gel is removed from the electrophoresis equipment and transferred to a nitrocellulose membrane and the membrane blocked with milk. The membrane is incubated with a primary antibody selective for either a) total Akt or b) phosphrylated Akt overnight at 4° C. A secondary antibody having a conjugated horseradish peroxidase (HRP) moiety is used to bind the constant regions of the primary antibodies. The membrane is washed under conditions favoring selective antibody binding. Finally, the HRP is detected using a enzymatically initiated chemiluminescent substrate such as Super Signal® ELISA Pico Substrates, available from Thermo Fisher Scientific.

[2] = biological target: T1, human EP4 prostaglandin receptor (Homo sapiens, UniProt P35408); experiment: Activity test measuring changes in intracellular cAMP in HEK-EBNA cells; format: cell-based; conditions: HEK-EBNA cells expressing human EP4, read-out: in vitro EC50 (concentration at 50% of maximal efficacy)
T1 construct: expressed in transfected cells; host or cells: HEK-EBNA cells
Procedure: The dosage of the prostaglandin EP4 agonist component employed in accordance with the present invention varies over a relatively wide range and depends on factors well known in the medicinal arts including, but not limited to: the weight of the individual to whom the agonist component is administered, the general health status/condition of such individual, the disease/condition sought to be treated/prevented by such administration, the severity of such disease/condition in such individual, the potency of the specific EP4 receptor agonist component being administered, the sensitivity of such individual to the specific agonist component being administered, the mode of administration, the age of such individual, the sex of such individual, the pregnancy status of such individual, the other ongoing drug therapies being administered to such individual and the like factors. The compound (Z)-7-{(1R,4S,5R)-5-[(E)-5-(3-chloro-benzo[b]thiophene-2-yl)-3-hydroxy-pent-1-enyl]-4-hydroxy-3,3-dimethyl-2-oxo-cyclopentyl}-hept-5-enoic acid has an in vitro EC50 (concentration at 50% of maximal efficacy) of between 0.03 and 0.1 nM in both the FLIPR® Ca^++ flux test and in an alternate activity test measuring changes in the intracellular concentration of cAMP in HEK-EBNA cells expressing the human EP4 prostaglandin receptor.

C57BL/6 mice [3] = experiment: Acetic acid-induced gastric ulcer model in mice; format: in vivo
Excerpt: Gastric ulcers were produced in C57BL/6 mice by using 40% acetic acid as follows. Animals were anesthetized. The abdomen of each animal was surgically opened, and the stomach exposed. A 3 mm curette was placed onto the anterior surface of each stomach. A solution of 40% acetic acid was placed inside the curette. The curette prevents damage to surrounding tissue. The acetic acid treatment causes damage to blood vessels of the stomach, producing chemical death to the mucous layer.
On the third day following induction of ulceration, the animals were given various treatments by oral gavage. First, vehicle (4% DMSO-corn oil) or a low dose (3 mg/kg/day) of indomethacin in 4% DMSO-corn oil was used. This dose of indomethacin has been reported not to induce gross lesions on the stomach, although it can inhibit the production of endogenous prostglandin PGE2.
On day 7 blood was withdrawn for hematology analysis from sacrificed animals, and subjected to automated testing for standard hematological parameters. Ulcer areas (defined as the regions of the stomach not covered by stomach mucosal epithelial cells) were measured by dissection microscopy for macroscopic analysis; additionally, the widest section of each ulcer sample was measured and observed as the size index under microscopy. The stomachs were processed for pathological analysis by dissection and section through the widest part of the ulcer. Sections were stained using hematoxylin & eosin.
Mice were then treated with 10 nM Compound 7 or the vehicle under otherwise identical conditions. In this experiment the vehicle was 4% DMSO in corn oil in a volume of 0.1 ml. The mice were sacrificed and the stomachs examined on either the 7th day or the 11th day following ulceration. […] Under dissection microscopy, the areas of the ulcers in mice treated with Compound 7 were 60% and 32% of the control on days 7 and 11, respectively. […] (FIG. 4B).

IEC-18 cells = experiment: Doxorubicin/celecoxib-induced apoptosis of IEC-18 cells by flow cytometry; format: cell-based, rat; conditions: 48 hours
Procedure: IEC-18 cells were cultured in high glucose DMEM containing 10% fetal bovine serum (FBS), 1% penicillin, 1% streptomycin, and 50 unit insulin essentially as indicated in Example 101 for 48 hours in the presence of the 0.05 μg/ml chemotherapy agent doxorubicin to induce apoptosis. In the presence of 10 μM celecoxib (which inhibits endogenous prostaglandin PGE2 expression), apoptosis of doxorubicin-treated IEC-18 cells proceeds within 48 hours at such very low concentrations of doxorubicin. Finally, the cells collected by trypsin were subjected to flow cytometry analysis for identification of the percentage of cells in different stages of the cell cycle.
Cultured cells were prepared for flow cytometry by trypsinization and centrifugation. The cells were then washed with cold phosphate buffered saline solution (PBS), then fixed with cold 70% ethanol overnight. The cells were then again washed with PBS and stained with propidium iodide, a nucleic acid intercalating dye, in the presence of RNase for 30 minutes at room temperature. The cells were then sorted using the buffer provided by Becton-Dickenson, the maker of the flow cytometry equipment.
Additionally, using CellQuest® software (Becton-Dickenson) a quantification of the percent of apoptosis occurring in IEC-18 cells after 48 hours' incubation was performed. […]

[4] = biological target: T1, human EP4 prostaglandin receptor; experiment: FLIPR Ca++ flux test; format: cell-based; conditions: cells expressing human EP4, read-out: in vitro EC50 (concentration at 50% of maximal efficacy)
Procedure: HEK-293 (EBNA) cells, stably expressing one type or subtype of recombinant human prostaglandin receptors (prostaglandin receptors expressed: hDP/Gqs5; hEP1; hEP2/Ggs5; hEP3A/Gqi5; hEP4/Ggs5; hFP; hIP; hTP), are cultured in 100 mm culture dishes in high-glucose DMEM medium containing 10% fetal bovine serum, 2 mM 1-glutamine, 250 μg/ml geneticin (G418) and 200 μg/ml hygromycin B as selection markers, and 100 units/ml penicillin G, 100 μg/ml streptomycin and 0.25 μg/ml amphotericin B.
Transfectant cells are seeded at a density of 5×10^4 cells per well in Biocoat®. Poly-D-lysine-coated black-wall, clear-bottom 96-well plates (Becton-Dickinson) and allowed to attach overnight in an incubator at 37° C. Cells are then washed two times with HBSS-HEPES buffer (Hanks Balanced Salt Solution without bicarbonate and phenol red, 20 mM HEPES, pH 7.4) using a Denley Cellwash plate washer (Labsystems). […]
Cells are excited with an Argon laser at 488 nm, and emission measured through a 510-570 nm bandwidth emission filter (FLIPR.™., Molecular Devices, Sunnyvale, Calif.). […] The peak increase in fluorescence intensity is recorded for each well. […] The peak fluorescence change in each drug-containing well is then expressed relative to the controls. […]

C57BL/6 mice [5] = experiment: Acetic acid-induced gastric ulcer model in mice; format: in vivo; remark: listed apart in the source
[6] = 0.1 mg/kg/d Compound 7 + 3 mg/kg/d indomethacin vs control mice
[7] = indomethacin 3 mg/kg/day oral gavage, day 7, vs vehicle

T1 sequence (P35408 whole entry): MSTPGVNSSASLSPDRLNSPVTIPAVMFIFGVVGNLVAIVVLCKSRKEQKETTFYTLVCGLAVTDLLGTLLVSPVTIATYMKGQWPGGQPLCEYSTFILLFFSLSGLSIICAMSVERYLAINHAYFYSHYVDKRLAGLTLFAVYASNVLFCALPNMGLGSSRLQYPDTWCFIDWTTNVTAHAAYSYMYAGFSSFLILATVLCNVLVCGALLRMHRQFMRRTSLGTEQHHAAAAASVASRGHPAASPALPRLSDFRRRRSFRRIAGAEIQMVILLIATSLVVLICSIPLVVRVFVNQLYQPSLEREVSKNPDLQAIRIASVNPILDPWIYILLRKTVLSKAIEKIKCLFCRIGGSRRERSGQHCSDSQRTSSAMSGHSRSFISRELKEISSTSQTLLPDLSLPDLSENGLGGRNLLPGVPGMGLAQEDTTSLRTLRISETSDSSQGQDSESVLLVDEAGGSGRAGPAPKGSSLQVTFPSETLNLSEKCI

In the case of `COc1ccc(-n2nc(C(F)(F)F)cc2-c2ccc(Cl)cc2)cc1` [SC-560], the Akt phosphorylation [1] is reported as “inhibited Akt phosphorylation”.
`CC1(C)C(=O)[C@H](C/C=C\CCCC(=O)O)[C@@H](/C=C/C(O)CCc2sc3ccccc3c2Cl)[C@@H]1O` (stereo partly drawn) [Compound 7, (Z)-7-{(1R,4S,5R)-5-[(E)-5-(3-chloro-benzo[b]thiophene-2-yl)-3-hydroxy-pent-1-enyl]-4-hydroxy-3,3-dimethyl-2-oxo-cyclopentyl}-hept-5-enoic acid] was tested, and the EC50 [2] was 30 to 100 pM, the “ulcer sizes vs vehicle” value (C57BL/6 mice [3]; 10 nM Compound 7, vehicle 4% DMSO in corn oil, day 7 or 11) was “significantly smaller ulcer sizes” and the “areas of the ulcers under dissection microscopy” value (C57BL/6 mice [3]; Compound 7, day 7) was 60 % of the control. For the same molecule, the “areas of the ulcers under dissection microscopy” value (C57BL/6 mice [3]; Compound 7, day 11) was 32 % of the control, the “inflammatory cell infiltrations and necrotic tissue in granulation tissue” value (C57BL/6 mice [3]; Compound 7 vs control group) was “significantly less” and the “gross and microscopic morphologies of the ulcer tissue” value (C57BL/6 mice [3]; Compound 7 vs vehicle, day 7) was “stimulates healing of ulcer and facilitate the removal of necrosis tissue”. The “Akt phosphorylation on co-incubation with indomethacin” value ([1]; 10 nM Compound 7 + 10 μM indomethacin vs indomethacin alone) was “maintained Akt phosphorylation at higher levels”, the percent apoptosis (IEC-18 cells; 10 nM Compound 7 added to 0.05 μg/ml doxorubicin + 10 μM celecoxib) was “approximately 5%” and the EC50 [4] was 30 to 100 pM. For the same molecule, the “hematocrit (HCT)” value (C57BL/6 mice [5]; [6]) was “significantly greater”, the “hemoglobin (HGB)” value (C57BL/6 mice [5]; [6]) was “significantly greater” and the “number of red blood cells (RBC)” value (C57BL/6 mice [5]; 0.1 mg/kg/d Compound 7 + 3 mg/kg/d indomethacin vs control mice, n=20) was “significantly greater”. The “blood loss (hematology)” value (C57BL/6 mice [5]; 0.1 mg/kg/d Compound 7 + 3 mg/kg/d indomethacin vs indomethacin alone) was “significantly less blood loss”.
For `COc1ccc2c(c1)c(CC(=O)O)c(C)n2C(=O)c1ccc(Cl)cc1` [indomethacin, reference compound], the “spontaneous healing of gastric ulcers (gross and microscopic ulcer size)” value (C57BL/6 mice [3]; indomethacin 3 mg/kg/day oral gavage from day 3, day 7, vs vehicle) was “delayed the spontaneous healing of gastric ulcers”, the “blood loss at ulcer sites” value (C57BL/6 mice [3]; [7]) was “exacerbate blood loss at ulcer sites” and the “inflammation (lymphocytes in the blood)” value (C57BL/6 mice [3]; [7]) was “exacerbated inflammation”. The Akt phosphorylation [1] was “inhibited phosphorylation of Akt to a greater extent that did SC-560 or celecoxib”.
With `COc1cccc2c1C(=O)c1c(O)c3c(c(O)c1C2=O)C[C@@](O)(C(=O)CO)C[C@@H]3O[C@H]1C[C@H](N)[C@H](O)[C@H](C)O1` [doxorubicin, reference compound] the percent apoptosis (IEC-18 cells; 0.05 μg/ml doxorubicin with 10 μM celecoxib) was “about 13%”.

Reference: patent US20100081631A1, “METHODS AND COMPOSITIONS FOR TREATING GASTROINTENSTIAL DISORDERS” (priority 2006, published 2010)
